Reference: ChEMBL document CHEMBL1131837, “Synthesis of new (benzimidazolyl)piperazines with affinity for the 5-HT1A receptor via Pd(0) amination of bromobenzimidazoles” (Bioorg Med Chem Lett, 1999)

Columns and labels:
[1] = target: T1, 5-hydroxytryptamine receptor 1A (Rattus norvegicus, UniProt P19327); test: In vitro binding affinity towards 5-hydroxytryptamine 1A receptor was determined using [3H]8-OH-DPAT as radioligand in rat cerebral cortex membranes; […]; assay type: cell membranes
T1 sequence (P19327 whole entry): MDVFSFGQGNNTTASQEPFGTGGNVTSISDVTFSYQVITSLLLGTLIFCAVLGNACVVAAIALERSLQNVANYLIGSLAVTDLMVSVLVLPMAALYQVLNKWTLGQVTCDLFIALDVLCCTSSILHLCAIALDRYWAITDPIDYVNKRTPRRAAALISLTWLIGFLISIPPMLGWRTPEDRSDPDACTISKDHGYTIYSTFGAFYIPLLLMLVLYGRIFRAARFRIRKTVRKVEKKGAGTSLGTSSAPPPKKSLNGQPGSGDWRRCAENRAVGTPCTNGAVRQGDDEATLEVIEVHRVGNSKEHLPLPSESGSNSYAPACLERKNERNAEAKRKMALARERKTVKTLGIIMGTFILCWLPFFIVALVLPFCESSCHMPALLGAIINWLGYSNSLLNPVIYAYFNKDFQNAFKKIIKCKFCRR

[2] = target: T1, 5-hydroxytryptamine receptor 1A; test: In vitro binding affinity towards 5-hydroxytryptamine 1A receptor was determined using [3H]8-OH-DPAT as radioligand in rat cerebral cortex membranes; assay type: cell membranes, Membrane

Row | Ki [1] | Compound | Ki [2] [nM]
1 | Not Active | CN1CCN(c2cccc3c2ncn3C(c2ccccc2)(c2ccccc2)c2ccccc2)CC1 | –
2 | – | O=C1C2CCCN2C(=O)N1CCCCN1CCN(c2cccc3[nH]cnc23)CC1 (centres undefined) | 1.21
3 | Not Active | c1ccc(C(c2ccccc2)(c2ccccc2)n2cnc3c(N4CCNCC4)cccc32)cc1 | –
4 | – | CN1CCN(c2cccc3[nH]cnc23)CC1 | 4.72
